Experimental data: patent US20200171056A1, “SULFONYLUREA COMPOUNDS IN THE TREATMENT OF DISEASE ASSOCIATED WITH UV-INDUCED DAMAGE” (CeMM - Forschungszentrum für Molekulare Medizin GmbH, priority 2017, published 2020)

Key:
Format in all cases: cell-based, human
[1] = tested on: XPA^Δ/Δ patient-derived cells; assay: Colony formation of XPA patient-derived fibroblasts after UV irradiation; conditions: 0.5 mM acetohexamide for 6 hours, then UV; 10 days (FIG. 2B)
Experimental: (§1) A. Dose-response curve of WT and ΔXPA cells treated with or without 0.5 mM acetohexamide for 6 hours, followed by illudin S treatment. Survival was assessed after 3 days using CellTiter-Glo. B. Colony formation of WT fibroblasts (BJ) and XPA-patient derived fibroblasts (XPA^Δ/Δ) treated with or without 0.5 mM acetohexamide for 6 hours, followed by UV irradiation (as indicated) and then kept in culture for 10 days. C. WT BJ and XPA^Δ/Δ fibroblastoid cells were treated with 0.5 mM acetohexamide for 6 hours, irradiated with 15 J/M^2 and then fixed and immunostained with an anti-cyclobutane pyrimidine dimer (CPD) antibody at the indicated times. Nuclear DNA was counterstained with DAPI. Scale bar, 10 μm. D. Scatter plot displaying the quantification of CPD intensities per nucleus of WT and XPA^Δ/Δ cells in the presence or absence of 0.5 mM acetohexamide, of more than 100 cells. Red lines within each column represent median intensities. A.u.=arbitrary unit.
HAP1 cells were cultured in Iscove's Modified Dulbecco's Medium (Gibco). […]
Cells were treated with UV at different doses with or without drug pre-treatment and then seeded into 6-well plates, at a density of 1,000 cells/well, in duplicates for 2 weeks until visible colonies were formed. […] Next, the staining solution was removed and the wells were washed, imaged and quantified using CellProfiler.

[2] = tested on: WT and ΔXPA cells; assay: Survival after illudin S treatment; conditions: 0.5 mM acetohexamide for 6 hours, then illudin S (FIG. 2A, 7B)
Experimental: as §1
A. Dose-response curve of WT and ΔXPA cells treated with or without 0.5 mM acetohexamide for the indicated times, followed by UV irradiation. Survival was assessed after 3 days, using CellTiter-Glo. […] WT and ΔXPA cells treated with or without 0.5 mM acetohexamide for the indicated times, followed by 15 J/M^2 irradiation and analyzed by dot blot for the presence of CPDs in genomic DNA. […] D. Quantification of the intensities of C. […]

[3] = tested on: WT and ΔXPA cells; assay: Cell cycle analysis (propidium iodide, FACS); conditions: 0.5 mM for 6 hours, WT vs ΔXPA (FIG. 8A)
Experimental: A. WT and ΔXPA cells were either treated with DMSO or 0.5 mM acetohexamide for 6 hours. Cell cycle profiles were determined using propidium iodide (P1) staining followed by FACS analysis. B-D. Survival of WT HAP1 cells treated with either DMSO or 0.5 mM acetohexamide for 6 hours, followed by exposure to the indicated DNA damaging agents (MMC: mitomycin C; HU: hydroxyl urea; MMS: methyl methanesulfonate). Survival was assessed after 3 days using CellTitre-Glo. E. Cell viability of WT cells treated either with 0.5 mM acetohexamide or 30 μM N-acetylcysteine (NAC) for 6 hours, followed by 30 J/M^2 UV exposure.
Cells were treated with either DMSO or acetohexamide as indicated. Cell cycle stages were identified using propidium iodide (PI) staining. Briefly, cells were harvested, resuspended in PBS and fixed overnight with cold 70% ethanol. After centrifugation, ethanol was removed and cells were resuspended in PBS containing 1 μg/mL RNase A and […]. Finally, cells were analyzed on a FACScalibur flow cytometer. Following cell acquisition, analysis was performed using FlowJo software (Tree Star).

[4] = tested on: MUTYH; assay: MUTYH protein levels by immunoblotting; conditions: WT HAP1, 0.5 mM for 6 hours, alone or with 10 μM MG132 (FIG. 4A-B)
Experimental: A. WT HAP1 cells were treated with or without 0.5 mM acetohexamide for 6 hours, then released into compound-free media for the indicated time points and immunoblotted with an anti-MUTYH antibody. ACTIN was used as a loading control. B. WT HAP1 cells were either treated with 0.5 mM acetohexamide alone or with 10 μM of the proteasome inhibitor MG132 for 6 hours and analyzed by immunoblotting using an anti-MUTYH antibody. C. Left panel: colony formation of the WT, ΔXPA or ΔXPA-MUTYH HAP1 cells treated with or without 0.5 mM acetohexamide for 6 hours, followed by 15 J/M^2 UV irradiation and then kept in culture for 10 days. Right panel: Macroscopic colonies were stained with crystal violet and quantified. D. WT, ΔXPA or ΔXPA-MUTYH HAP1 cells were treated with 15 J/M^2 UV or left untreated, then kept in culture for the indicated recovery times and analyzed by dot blot for the presence of CPDs within genomic DNA. E. Number of chromosomal abnormalities per metaphase spread of ΔXPA or ΔXPA-MUTYH HAP1 exposed to different doses of UV irradiation. Data in (E) represented as mean±SEM. F. Survival of WT and ΔMULE HAP1 cells exposed to UV irradiation at different doses and assessed after 3 days, using CellTitre-Glo.
Cells were lysed in lysis buffer composed of RIPA lysis buffer supplemented with protease inhibitors (Sigma) and phosphatase inhibitors (Sigma, NEB). […]

Structure (SMILES): CC(=O)c1ccc(S(=O)(=O)NC(=O)NC2CCCCC2)cc1 [acetohexamide]
- UV-induced cell death of XPA^Δ/Δ patient-derived cells [1]: could alleviate UV-induced cell death of XPA^Δ/Δ patient-derived cells
- cellular survival following illudin S treatment [2]: could increase cellular survival following illudin S treatment
- cell cycle profiles [3]: no difference between wildtype or ΔXPA cells upon acetohexamide treatment
- MUTYH protein levels [4]: decrease in MUTYH protein levels in a proteasome dependent manner
